Results from US20230277669A1, “USES OF UROLITHINS” (Amazentis SA, priority 2022, published 2023).

System: Pgam5^-/- CD8^+ T cells
Assay: In vitro stimulation of PGAM5-/- CD8+ cells in presence of UA
Assay type: cell-based, PGAM5^-/- mice
Experimental: (FIG. 5H) Immunofluorescence of PGAM5 (green) in CD3+ cells after in vitro stimulation with aCD3/aCD28 stimulation beads for six hours. Cells were stained with Mitotracker Red to display mitochondrial colocalisation in the DMSO control as opposed to cytosolic release in the UA sample (m, mitochondrial co-localization; c, cytoplasmic localization) Scale=5 um. (FIG. 5I) In vitro stimulation of PGAM5^-/- CD8+ cells: Percentage of TSCM after 48 h of stimulation with aCD3/aCD28 stimulation beads in the presence of UA. All data depicts mean ± SD, n=4 per group. Statistics shown here depict unpaired, two-sided t-test and Mann-Whitney test (I; (DMSO vs UA25; DMSO vs UA50). *p < 0.05; n.s. not significant. (FIG. 5J) Percentage of CD95+ er 48 h of stimulation with aCD3/aCD28 stimulation beads in the presence of UA. (FIG. 5K) CD95+er 48 h of stimulation with aCD3/aCD28 stimulation beads in the presence of UA.
(FIG. 5L) UA induces PGC-1α expression in stimulated CD8+ cells. PGC-1α MFI at 48 h upon stimulation, as assessed by intracellular staining, is shown (n=3). One of two independent experiments are shown. Data are mean ± SD, statistical analysis was performed by two-sided t-test (p**<0.01). (FIG. 5M) Mitochondrial content of TIL CD8+ cells harvested from APTK-carrying mice, fed UA or control diet as depicted in FIG. 1J. Assessed by Mitotracker Red staining. Data are mean ± SD, *p < 0.05 by two-sided t-test. (FIG. 5N) Mitophagy and subsequent PGAM5 release drive PGC-1α upregulation. PGC-1α expression of CD8+ cells derived from Pink1^-/- KO mice upon 48 h stimulation in vitro in the presence of UA or DMSO control (n=4). Data are mean ± SD, statistical analysis was performed by two-sided t-test. Depicts one of two independent experiments. (FIG. 5O) Mitophagy and subsequent PGAM5 release drive PGC-1 α upregulation. PGC-1α expression of CD8+ cells derived from PGAM5^-^/- mice upon 48 h stimulation in vitro in the presence of UA or DMSO control (n=4). Data are mean ± SD, statistical analysis was performed by two-sided t-test. […] Cells were co-treated with DMSO, UA and an inhibitor of PGC-1α (PGC-1αi) as indicated (n=4). One of two independent experiments are shown. Data are mean ± SD, statistical analysis was performed by two-sided t-test (p**<0.01; ***p <0.001; n.s. not significant).(FIG. 5Q) Urolithin A induces TSCM in human CD8+ cells: Schematic overview. PBMC were isolated from healthy donors, prior to T cell purification and in vitro stimulation via aCD3/aCD28 stimulation beads at the presence of UA or DMSO control. (FIG. 5R) Quantification of human TSCM (n=4). Representative data of one out of five donors with the same result are shown. (FIG. 5S) Quantification of TMRM^loCD8+ human cells 48 h after activation in the presence of UA or DMSO control (n=4). (FIG. 5T) TCF1 expression in human CD8 cells as assessed by flow cytometry (n=4). All data are mean ± SD; statistical analysis was performed by two-sided t-test (*p < 0.05; p**<0.01; p****0.0001).
(FIG. 8B) qPCR analysis of selected Wnt target genes 24 h after stimulation (n=4). Data are mean ± SEM, statistical analysis was performed by two-sided t-test (* p<0.05, ** p<0.01, *** p<0.001). (FIG. 8C) CD8+ cells from PGAM5^-/- mice display an adequate mitophagy response upon UA treatment: Flow cytometry analysis of lysosome formation after six hours of in vitro stimulation via aCD3/aCD28 stimulation beads (n=4). (FIG. 8D) CD8+ cells from PGAM5^-/- mice display an adequate mitophagy response upon UA treatment: Mitotracker Red signal after 24 h in PGAM5^-/- CD8+ stimulated in vitro at the presence of UA or vehicle control. Congruent histograms are shown. Data are mean ± SD, statistical analysis was performed by two-sided t-test (* p<0.05, ** p<0.01, *** p<0.001). (FIG. 8E) Cytosolic fractionation Western blot of Pink1^-/- CD3+ cells 6 h after stimulation with plate-bound aCD3/aC28 antibodies in the presence of Urolithin A or DMSO control. […]

With `O=c1oc2cc(O)ccc2c2ccc(O)cc12` [Urolithin A] the “mitochondrial content (Mitotracker Red)” value (24 h) was “reduced mitochondrial content”, the PGC-1α expression (48 h) was “failed to enhance” and the TCF1 (48 h) was “failed to upregulate”. For the same compound, the “UA-dependent expansion of CD44-CD62L+Sca1hi TSCM cells” value (48 h) was “blocked the UA-dependent expansion”, the “memory marker CD95” value (48 h) was “failed to upregulate” and the lysosome formation (six hours) was “still enhanced lysosome formation”.
